Series [1] in a line: Cytotoxicity assay (CellTiter-Glo cell viability). It counts as cell-based. To be noted: African green monkey; Vero cells, 72 hours; read-out: Cytotoxicity IC50. Here is the method:
Cytotoxicity was determined by determining the effect of compounds on cell viability. Vero (kidney epithelial cells; ATCC CCL-81) monolayers were trypsinized and 5000 cells/well were seeded (10-15% confluency) into white-wall, flat bottom 96 well microwell plates (Corning) using enriched Dulbecco's Modified Eagle's Medium (Hyclone: DMEM/High Glucose) containing 10% Fetal Bovine Serum (ATCC-30-2020). Plates were incubated overnight at 37° C. in the presence of 5% CO2. Drug-free media was then replaced with media containing serial dilutions of test compound or DMSO carrier. After an additional 72 hours of incubation, viability was indirectly measured using the CellTiter-Glo® Luminescent Cell Viability (Promega) assay. Assay plates were read at peak emission wavelength of 560 nm using a EnVision® Multilabel Plate Reader (Perkin Elmer) or PHERAstar FS Multilabel reader (BMG, Cary, N.C.). The concentration of test compounds that inhibited growth by 50% (IC50 value) was computed using nonlinear regression based fitting of inhibition curves using log [inhibitor] vs. response-variable slope (four parameters)—symmetrical equation, in GraphPad Prism version 6 [GraphPad Software, La Jolla, Calif. USA, www.graphpad.com]. For each experiment, compounds were tested in duplicate. IC50 values presented are the range of two biologically independent experiments.
A general note: In ATP-based viability assays light output follows the ATP content of the culture.

Another series deals with B. subtilis. Description: Minimal inhibitory concentration, microbroth dilution. The format is cell-based. Conditions: Bacillus subtilis, read-out: Minimal Inhibitory Concentrations (μM) B. subtilis. An outline of the steps:
(§1)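 Susceptibility testing used the CLSI dilution standard, with bacteria at ~10^5 cfu/mL exposed to a two-fold compound series beginning at 200 μM final. The endpoint is the lowest concentration showing no growth after overnight incubation (37 °C, aerobic).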
(Broth dilution looks for growth in wells or tubes with falling amounts of substance.)

Another series has as its system E. faecails. The description is as above. It counts as cell-based. To be noted: Enterococcus faecalis. Summed up: as §1
In the next series the test system is MRSA NRS70. The series is described as above. To be noted: Staphylococcus aureus. It counts as cell-based. Summed up:
as §1

The test system of a further series is S. aureus ATCC 29213. The description is as above. Conditions: Staphylococcus aureus. The format is cell-based. An outline of the steps: as §1
A further series has as its system S. aureus USA 300. Described as above. The format is cell-based. To be noted: Staphylococcus aureus. Summed up:
as §1

Another series concerns S. pyogenes. The description is as above. The format is cell-based. To be noted: Streptococcus pyogenes, read-out: Minimal Inhibitory Concentrations (μM) S. pyogenes. An outline of the steps: as §1
Series [2] can be described thus: Plasma protein binding, rapid equilibrium dialysis. It counts as in vitro ADME, mouse.
A further series can be described thus: Plasma pharmacokinetics. The format is in vivo, male BALB/c mice. To be noted: male, BALB/c, mouse, in vivo, iv.
Another series deals with S. pneumoniae. Description: Minimal inhibitory concentration, microbroth dilution. It counts as cell-based. Conditions: Streptococcus pneumoniae, read-out: Minimal Inhibitory Concentrations (μM) S. pneumoniae. An outline of the steps:
as §1

Setting [3] is: read-out: Minimal Inhibitory Concentrations (μM) E. faecails, MIC.
Where [4] appears, read: read-out: Minimal Inhibitory Concentrations (μM) MRSA NRS70, MIC.
Setting [5] is: ATCC29213, read-out: Minimal Inhibitory Concentrations (μM) S. aureus ATCC 29213, MIC.
[6] abbreviates: USA300, read-out: Minimal Inhibitory Concentrations (μM) S. aureus USA 300, MIC.
Where [7] appears, read: plasma binding, % Bound, mouse plasma.

Values after ≈ are worked out from the molar mass of the structure shown. Like-named read-outs stand apart in the source and are kept apart here. Numbered stars: 1 amine (or outer) side, 2 acyl side, 3 side chain; on linkers, the order of the positions; unused ones are H or OH. Bridge positions count the residues as written; N and C are the ends. Square brackets hold non-standard residues; d marks the D form. Peptide text beside a SMILES is read from it. * marks the point of attachment. Piperazine(2S-CO,4-Me) = CN1CCN[C@H](C(=O)O)C1; Phe(3,5-Me2) = Cc1cc(C)cc(C[C@H](N)C(=O)O)c1; Phe(3-Me) = Cc1cccc(C[C@H](N)C(=O)O)c1; NH(4-Cl-2-F-phenyl) = Fc1cc(Cl)ccc1N*; Pro(4R-Me) = C[C@H]1CN[C@H](C(=O)O)C1; NH(4-Me-phenyl) = Cc1ccc(N*)cc1; aThr = C[C@H](O)[C@H](N)C(=O)O; Pip = O=C(O)[C@@H]1CCCCN1; CO = O=C([*:1])[*:2]

For orientation: IC50 means the concentration needed to halve the response being measured. For the compound `Cc1ccc(NC(=O)N[C@@H](Cc2cc(C)cc(C)c2)C(=O)N[C@@H]2C(=O)N3CCC[C@H]3C(=O)N3CCCC[C@H]3C(=O)N[C@@H](C)C(=O)N3C[C@H](C)C[C@H]3C(=O)O[C@H]2C)cc1` [Compound 2, (S)-3-(3,5-DIMETHYLPHENYL)-2-(3-(P-TOLYL)UREIDO)-N-((2R,6S,8AS,14AS,20S,21S,23AS)-2,6,21-TRIMETHYL-5,8,14,19,23-PENTAOXOOCTADECAHYDRO-1H,5H,14H,19H-PYRIDO[2,1-I]DIPYRROLO[2,1-C:2′,1′-L][1]OXA[4,7,10,13]TETRAAZACYCLOHEXADECIN-20-YL)PROPANAMIDE] ({NH(4-Me-phenyl)-CO}-[Phe(3,5-Me2)][aThr]P[Pip]A[Pro(4R-Me)]; ester 2-C), the IC50 at 72 h in series [1] is over 100 µM. Moreover, the MIC in the series on B. subtilis is 0.625 µM (≈ 0.5 µg/mL); in the series on E. faecails (setting [3]), 2.5 µM (≈ 2 µg/mL); in the series with MRSA NRS70 (setting [4]), 0.313 µM (≈ 0.25 µg/mL); in the series on S. aureus ATCC 29213 (setting [5]), 1.25 µM (≈ 1 µg/mL); with S. aureus USA 300 (setting [6]), 0.781 µM (≈ 0.625 µg/mL); in the series with S. pyogenes, over 20 µM. In [2] (setting [7]), the Mouse turned out to be 99.2%.
In general, AUC(0-inf) refers to total exposure, with the tail of the curve extrapolated. Usually AUC(0-t) stands for exposure summed from dosing to a finite time, without extrapolation to infinity. The clearance is the volume of plasma or blood freed of the substance per unit of time. A higher clearance goes with a high capacity for elimination. The half-life is the time in which the quantity being followed falls by half. Higher therefore signals slow loss. Regarding `Cc1cccc(C[C@H](NC(=O)Nc2ccc(Cl)cc2F)C(=O)N[C@@H]2C(=O)N3CCC[C@H]3C(=O)N3CCCC[C@H]3C(=O)N[C@@H](C)C(=O)N3C[C@H](C)C[C@H]3C(=O)O[C@H]2C)c1` [Compound 3, (S)-2-(3-(4-CHLORO-2-FLUOROPHENYL)UREIDO)-3-(M-TOLYL)-N-((2R,6S,8AS,14AS,20S,21S,23AS)-2,6,21-TRIMETHYL-5,8,14,19,23-PENTAOXOOCTADECAHYDRO-1H,5H,14H,19H-PYRIDO[2,1-I]DIPYRROLO[2,1-C:2′,1′-L][1]OXA[4,7,10,13]TETRAAZACYCLOHEXADECIN-20-YL)PROPANAMIDE] ({NH(4-Cl-2-F-phenyl)-CO}-[Phe(3-Me)][aThr]P[Pip]A[Pro(4R-Me)]; ester 2-C), the MIC turned out to be 0.078 µM (≈ 0.0643 µg/mL) in the series with B. subtilis (MIC); 0.078 µM (≈ 0.0643 µg/mL) with E. faecails (MIC, read-out: Minimal Inhibitory Concentrations (μM) E. faecails); 0.078 µM (≈ 0.0643 µg/mL) in the series on MRSA NRS70 (MIC, read-out: Minimal Inhibitory Concentrations (μM) MRSA NRS70); 0.156 µM (≈ 0.129 µg/mL) in the series on S. aureus ATCC 29213 (ATCC29213, MIC, read-out: Minimal Inhibitory Concentrations (μM) S. aureus ATCC 29213); 0.156 µM (≈ 0.129 µg/mL) in the series with S. aureus USA 300 (USA300, MIC, read-out: Minimal Inhibitory Concentrations (μM) S. aureus USA 300); 0.313 µM (≈ 0.258 µg/mL) in the series with S. pyogenes (MIC). The Mouse in series [2] (mouse, 4 h, 10 μM, pH 7.4) came out at 99.3 ± 0.1%. The compound further yielded an AUC(0-inf) in the series “Plasma pharmacokinetics” of 12600 ng·h/mL. In the series “Plasma pharmacokinetics”, this compound returned an AUC(0-t) of 12500 ng·h/mL. For the same compound, the “C^0” value in “Plasma pharmacokinetics” worked out at 13482.56 ng/mL. Besides, the clearance in “Plasma pharmacokinetics” is 13.3 mL/min/kg. Further, the half-life in “Plasma pharmacokinetics” is 3.4 h. In “Plasma pharmacokinetics” (10 mg/kg, Route i.v., read-out: Vss), the Vd is 2.08 L/kg.
Consider `Cc1ccc(NC(=O)N[C@@H](Cc2cccc(C)c2)C(=O)N[C@H]2COC(=O)[C@@H]3C[C@@H](C)CN3C(=O)[C@H](C)NC(=O)[C@@H]3CN(C)CCN3C(=O)[C@@H]3CCCN3C2=O)cc1` [Compound 15, (S)-3-(M-TOLYL)-2-(3-(P-TOLYL)UREIDO)-N-((6AS,12S,15AS,17R,21S,23AS)-2,17,21-TRIMETHYL-6,11,15,20,23-PENTAOXOOCTADECAHYDRO-2H,6H,11H,15H-PYRAZINO[2,1-I]DIPYRROLO[2,1-C:2′,1′-L][1]OXA[4,7,10,13]TETRAAZACYCLOHEXADECIN-12-YL)PROPANAMIDE] ({NH(4-Me-phenyl)-CO}-[Phe(3-Me)]SP[Piperazine(2S-CO,4-Me)]A[Pro(4R-Me)]; ester 2-C), for which the MIC in the series with E. faecails (setting [3]) stood at 1.25 µM (≈ 0.984 µg/mL); in the series on MRSA NRS70 (setting [4]), 2.5 µM (≈ 1.97 µg/mL); with S. aureus ATCC 29213 (setting [5]), 2.5 µM (≈ 1.97 µg/mL); in the series with S. aureus USA 300 (setting [6]), 5 µM (≈ 3.93 µg/mL); in the series on S. pneumoniae, 0.313 µM (≈ 0.246 µg/mL); with S. pyogenes, 0.313 µM (≈ 0.246 µg/mL). The compound also showed a Mouse in [2] (setting [7]) of 77.0 ± 6.1%.

The values above are taken from patent US10570179B2, “Substituted urea depsipeptide analogs as activators of the CLPP endopeptidase” (priority 2016, dated 2020).
